Reference: PMC9529094, “Identification of natural cytochalasins as leads for neglected tropical diseases drug discovery” (PLoS ONE, 2022)
Read-outs that look alike come from different tables or passages of the source.

Experiments:
in vitro [1] = format: cell-based; conditions: human, 72 h, MTS
Protocol: (§1) THP-1 (human monocyte cell line) cells were cultivated in RPMI medium supplemented with 10% foetal calf serum (FCS) (Cultilab, Campinas, SP, BR) and 1% penicillin and streptomycin (pen/strep—Sigma-Aldrich) at 37°C under 5% CO2, and HFF-1 (human fibroblast) and HepG2 (hepatocytes) cells were cultivated in DMEM without phenol red (Cultilab) supplemented with 10% FBS (Sigma-Aldrich) and 1% pen/strep at 37°C under 5% CO2.
The cytotoxicity of the compounds against HFF-1 fibroblasts and HepG2 hepatocytes was evaluated using the MTS tetrazolium assay (Promega, Madison, WI, USA). HFF-1 fibroblasts were seeded at 4x10^3/well in 96-well culture plates in DMEM without phenol red and incubated overnight (37°C, 5% CO2). HepG2 hepatocytes were seeded at 7x10^3/well in 96-well culture plates in DMEM (Cultilab) with supplements (10% FCS, 1% pen/strep) and incubated overnight (37°C, 5% CO2). The compounds were added in 2-fold serial dilutions at the same concentrations described before, and the plates were incubated as described before. Each compound concentration was evaluated in duplicate. All the plates included doxorubicin (DOX) (Sigma-Aldrich) as a positive control (10–0.01 μM) and untreated wells as a negative control (100% growth). After 72 h, 15 μL of MTS (Promega) was added, and the plates were incubated for 4 h. The absorbance was measured at 490 nm in an automated SpectraMax 384 microplate reader (Sunnyvale, CA, USA), and the data were analysed using GraphPad Prism version 8.0 for CC50 value calculation. The percentage of nonviable cells was determined and compared to the negative control wells (100% growth).

[2] = test system: intracellular T. cruzi Tulahuen LacZ amastigotes; experiment: microbe, parasite or virus in culture; format: cell-based, Trypanosoma cruzi
Protocol: (§2) The epimastigote forms of the T. cruzi Tulahuen strain, which expresses the E. coli β-galactosidase gene lacZ [11], were grown in liver infusion tryptone (LIT) supplemented with 10% FCS (Cultilab) and 1% pen/strep (Sigma–Aldrich) at 28°C. Metacyclogenesis from epimastigotes to trypomastigotes was induced by the incubation of the epimastigotes in Grace’s insect medium (Sigma-Aldrich, 28°C) every 5 days. After 5 days, the trypomastigote forms were used to infect the HFF-1 cells. The promastigote forms of L. infantum were maintained in Schneider’s insect medium (Sigma-Aldrich) supplemented with 10% FCS (Cultilab) and 1% pen/strep (Sigma-Aldrich) at 28°C and subcultured every 6 or 7 days.
In vitro assays against T. cruzi were performed as described previously. HFF-1 human fibroblasts were seeded at 4x10^3/well in 96-well tissue culture plates in DMEM (Cultilab) without phenol red and then incubated overnight (37°C, 5% CO2). Next, trypomastigotes were added at 4x10^4/well, and the plates were incubated (37°C, 5% CO2). After 24 h, 2-fold serial dilutions of the test compounds were added at concentrations ranging from 64 to 0.12 μM, and the plates were then incubated (37°C, 5% CO2). Each compound concentration was evaluated in duplicate. All the plates included BZ (64–0.12 μM) (Sigma-Aldrich) as a positive control and untreated wells (100% growth) as a negative control. After 120 h, chlorophenol red β-D-galactopyranoside (CPRG, Sigma-Aldrich) was added to each well. The absorbance was measured at 570 nm in an automated SpectraMax 384 microplate reader (Sunnyvale, CA, USA), and the data were analysed using GraphPad Prism version 8.0 (San Diego, CA, USA) for IC50 value calculation.
(§3) The analyses were performed using GraphPad Prism version 8.0 (GraphPad Software, San Diego, CA, USA). Both the IC50 and CC50 values were calculated by adjusting the sigmoid dose-response curves, and the selectivity index (SI) values were determined by CC50/IC50 [16]. Statistical analyses were performed using one-way ANOVA followed by Dunnett’s multiple comparison test.

in vitro [3] = format: cell-based; conditions: human; 72 h, resazurin; read-out: THP-1 CC50 (μM ± SD)
Protocol: as §1
THP-1 cells were seeded at 2x10^4/well in 96-well culture plates in RPMI 1640 supplemented (10% FCS, 1% pen/strep) and incubated overnight (37°C, 5% CO2). The compounds were added in 2-fold serial dilutions (64–0.12 μM), and the plates were incubated as described before. Each compound concentration was evaluated in duplicate. All the plates included DOX (Sigma-Aldrich) as a positive control (10–0.01 μM) and untreated wells as a negative control (100% growth). After 72 h, 20 μL of resazurin (Sigma-Aldrich) was added, and the plates were incubated for 4 h. The absorbance was measured at 536 and 588 nm in an automated microplate reader SpectraMax Gemini, and the data were analysed using GraphPad Prism version 8.0 for CC50 value calculation. The percentage of nonviable cells was determined and compared to the negative control wells (100% growth).

[4] = test system: intracellular L. infantum amastigotes; experiment: microbe, parasite or virus in culture; format: cell-based, Leishmania infantum
Protocol: as §2
In the intracellular amastigote assay, THP-1 cells were seeded at 2x10^4/well (RPMI-1640, 100 μL) with phorbol 12-myristate 13-acetate (PMA) at 20 ng/mL for differentiation into macrophages. After incubation for 72 h (5% CO2, 37°C), the medium was aspirated, and late-stage L. infantum promastigotes were added (2x10^5/well, 100 μL). Following 24 h of incubation, the medium was aspirated to clear extracellular parasites, and the compounds were added in serial dilutions (2-fold) to final concentrations of 64–0.12 μM. The plates included negative controls (100% growth) and MIL (64–0.12 μM) as a positive control. After 120 h of incubation, the medium was removed, and the cells were fixed in methanol and stained with Giemsa. The average number of intracellular amastigotes per THP-1-cell was determined using an inverted microscope and a cell counter. Growth inhibition is expressed as a percentage of the average number of amastigotes per macrophage in the negative control wells. The IC50 values were obtained using GraphPad Prism version 8.0.
as §3

Compound: O=C(Cn1ccnc1[N+](=O)[O-])NCc1ccccc1 [BZ, benznidazole, reference compound]
- CC50 (in vitro [1]; read-out: HFF-1 CC50 (μM ± SD)): > 64 µM
- IC50 ([2]; Trypanosoma cruzi, intracellular amastigotes, Tulahuen LacZ, HFF-1 host cells, 120 h, read-out: T. cruzi IC50 (μM ± SD)): 5.2 ± 1.87 µM
- SI^1 (CC50 HFF-1/IC50 T. cruzi) ([2]; selectivity index): >12.3

Compound: COc1cccc2c1C(=O)c1c(O)c3c(c(O)c1C2=O)C[C@@](O)(C(=O)CO)C[C@@H]3O[C@H]1C[C@H](N)[C@H](O)[C@H](C)O1 [DOX, doxorubicin, reference compound]
- CC50 (in vitro [1]; read-out: HFF-1 CC50 (μM ± SD)): 0.69 ± 0.08 µM
- CC50 (in vitro [1]; read-out: HepG2 CC50 (μM ± SD)): 0.24 ± 0.06 µM
- CC50 (in vitro [3]): 0.97 ± 0.31 µM

Compound: CCCCCCCCCCCCCCCCOP(=O)([O-])OCC[N+](C)(C)C [MIL, miltefosine, reference compound]
- CC50 (in vitro [3]): 58.5 ± 5.37 µM
- IC50 ([4]; Leishmania infantum, THP-1, 120 h, intracellular amastigotes in THP-1 macrophages, 120 h, read-out: L. infantum IC50 (μM ± SD)): 1.1 ± 0.16 µM
- SI^2 (CC50 THP-1/IC50 L. infantum) ([4]; selectivity index): 53.14
